Results as given in ChEMBL document CHEMBL1137622, “8-Hydroxy-3,4-dihydropyrrolo[1,2-a]pyrazine-1(2H)-one HIV-1 integrase inhibitors” (Bioorg Med Chem Lett, 2007).
Activity calls are given as the source filed them. No cut-off for these calls is given here.

Experiments:
[1] = test system: Human immunodeficiency virus 1; test: Antiviral activity against HIV1 3B infected in human MT4 cells after 24 hrs by p24 ELISA; assay type: functional; conditions: Human immunodeficiency virus 1, 3B, MT4, 24 h; read-out: CIC95
[2] = target: Human immunodeficiency virus type 1 integrase (Human immunodeficiency virus 1, UniProt Q7ZJM1); test: Inhibition of recombinant HIV1 integrase strand transfer activity
[3] = test system: MT4; test: Cytotoxicity against human MT4 cells at concentrations up to 20 uM; assay type: cell-based
[4] = test system: Human immunodeficiency virus 1; test: Antiviral activity against HIV1 at concentrations upto 20 uM; assay type: functional, organism-based
[5] = physchem
Description: Dissociation constant, pKa of the compound

[6] = Half life in rat at 2 mg/kg, iv; assay type: ADME, organism-based; design: dose 2 mg/kg, route intravenous; conditions: in vivo
[7] = Clearance in rat at 2 mg/kg, iv; assay type: ADME, organism-based; design: dose 2 mg/kg, route intravenous; conditions: in vivo

Human immunodeficiency virus type 1 integrase, sequence (Q7ZJM1 whole entry): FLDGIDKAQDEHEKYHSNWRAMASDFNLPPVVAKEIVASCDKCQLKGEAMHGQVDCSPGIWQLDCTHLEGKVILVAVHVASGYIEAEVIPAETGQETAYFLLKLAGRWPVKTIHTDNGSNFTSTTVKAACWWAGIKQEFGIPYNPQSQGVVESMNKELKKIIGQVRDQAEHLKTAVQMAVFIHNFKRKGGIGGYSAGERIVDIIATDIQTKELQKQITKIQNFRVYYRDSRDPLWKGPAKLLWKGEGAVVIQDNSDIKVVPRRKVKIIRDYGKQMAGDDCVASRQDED

Compound: CN1CCc2c(c(O)c3n2CCN(Cc2ccc(F)cc2)C3=O)C1=O
- IC95 [1]: 0.39 µM
- IC50 [2]: < 10 nM

Compound: CCOC(=O)c1cn2c(c1O)C(=O)N(Cc1ccccc1)CC2
- IC95 [1]: 20 µM
- Activity [3]: Non-toxic
- IC50 [2]: 220 nM

Compound: CNC(=O)c1cn2c(c1O)C(=O)N(Cc1ccc(Cl)cc1)CC2
- IC95 [1]: 2.5 µM
- IC50 [2]: 60 nM

Compound: CNC(=O)c1cn2c(c1O)C(=O)N(Cc1ccc(Cl)c(Cl)c1)CC2
- IC95 [1]: 1.25 µM
- IC50 [2]: 40 nM

Compound: CNC(=O)c1cn2c(c1O)C(=O)N(Cc1ccc(F)cc1)CC2
- IC95 [1]: 10 µM
- IC50 [2]: 80 nM

Compound: O=C1c2c(O)c3n(c2CCN1Cc1ccc(F)cc1)CCN(Cc1ccc(F)cc1)C3=O
- IC95 [1]: 0.07 µM
- IC50 [2]: < 10 nM

Compound: CCOC(=O)c1cn2c(c1O)C(=O)N(Cc1cccc(F)c1)CC2
- IC95 [1]: 9.38 µM
- Activity [3]: Non-toxic
- IC50 [2]: 110 nM

Compound: O=C(O)c1cn2c(c1O)C(=O)N(Cc1ccccc1)CC2
- IC95 [1]: > 20 µM
- Activity [4]: inactive
- IC50 [2]: 80 nM
- pKa [5]: 3.8

Compound: CCOC(=O)c1cn2c(c1O)C(=O)N(Cc1ccc(Cl)cc1)CC2
- IC95 [1]: 1.02 µM
- Activity [3]: Non-toxic
- IC50 [2]: 40 nM

Compound: O=C(O)c1cn2c(c1O)C(=O)N(Cc1cccc(Cl)c1)CC2
- IC95 [1]: > 20 µM
- Activity [4]: inactive
- IC50 [2]: 10 nM
- pKa [5]: 3.8

Compound: CCOC(=O)c1cn2c(c1O)C(=O)N(Cc1ccc(F)c(Cl)c1)CC2
- IC95 [1]: 0.94 µM
- Activity [3]: Non-toxic
- IC50 [2]: 20 nM

Compound: CCOC(=O)c1cn2c(c1O)C(=O)N(Cc1ccc(Cl)c(Cl)c1)CC2
- IC95 [1]: 0.31 µM
- half-life [6]: 30 min
- Activity [3]: Non-toxic
- IC50 [2]: 10 nM
- clearance [7]: 30 mL/min/kg

Compound: CCOC(=O)c1cn2c(c1O)C(=O)N(Cc1ccc(F)cc1)CCC2
- IC50 [2]: > 5000 nM

Compound: CCOC(=O)c1cn2c(c1O)C(=O)N(Cc1cccc(Cl)c1)CC2
- IC95 [1]: 1.25 µM
- Activity [3]: Non-toxic
- IC50 [2]: 30 nM

Compound: CCOC(=O)c1cn2c(c1O)C(=O)N(Cc1ccc(F)cc1)CC2
- IC95 [1]: 3.23 µM
- Activity [3]: Non-toxic
- IC50 [2]: 40 nM

Compound: CN1CCn2c3c(c(O)c2C1=O)C(=O)N(Cc1ccc(F)cc1)CC3
- IC95 [1]: 0.16 µM
- IC50 [2]: < 10 nM
